Data reported in ChEMBL document CHEMBL1201862, “PubChem BioAssay data set” (2004).
Active and inactive are the calls of the source.

Legend:
[1] = Luminescence Cell-Based Dose Response to Identify Activators of 5'UTR Stem-Loop Driven Prion Protein mRNA Translation in H4-C Neuroglioblastoma Cells. [Related pubchem assays: 1829 (Project Summary), 1814 (Primary HTS)]; assay type: functional
[2] = Luminescence Cell-Based Dose Confirmation HTS to Identify Activators of 5'UTR Stem-Loop Driven Alpha-Synuclein mRNA Translation in H4 Neuroglioblastoma Cells. [Related pubchem assays: 1829 (Project Summary), 1814 (Primary HTS)]; assay type: functional
[3] = Luminescence Cell-Based Dose Confirmation to Identify Activators of 5'UTR Stem-Loop Driven Alpha-Synuclein mRNA Translation in H4 Neuroglioblastoma Cells. [Related pubchem assays: 1829 (Project Summary), 1814 (Primary HTS)]; assay type: functional
H4 = test: Luminescence Cell-Based Dose Response HTS to Identify Activators of 5'UTR Stem-Loop Driven Prion Protein mRNA Translation in H4 Neuroglioblastoma Cells. [Related pubchem assays: 1829 (Project Summary), 1814 (Primary HTS)]; assay type: functional; conditions: Homo sapiens
[4] = Luminescence Cell-Based Dose Response to Identify Activators of Luciferase Translation or Activity in H4-C Neuroglioblastoma Cells. [Related pubchem assays: 1829 (Project Summary), 1814 (Primary HTS)]; assay type: functional
[5] = Luminescence Cell-Based Dose Response HTS to Identify Activators of Luciferase Translation or Activity in H4 […] Cells. [Related pubchem assays: 1829 (Project Summary), 1814 (Primary HTS)]; assay type: functional
[6] = target: Voltage-gated inwardly rectifying potassium channel KCNH2 (Homo sapiens, UniProt Q12809); test: concentration-dependent hERG rescue from blockers – cell-based, thallium flux, dose response (AID 2121); assay type: ADME
Genome polyprotein = Genome polyprotein (dengue virus type 2, UniProt P29990); test: flavivirus cap methylation enzyme inhibition – biochemical, confirmation dose response, primary screen (AID 588689); assay type: functional
[7] = target: T1, Induced myeloid leukemia cell differentiation protein Mcl-1 (Homo sapiens, UniProt Q07820); assay type: functional
Estrogen receptor beta = Estrogen receptor beta (Homo sapiens, UniProt Q92731); test: blockers of SRC-3 recruitment to ERβ – biochemical, ELISA, streptavidin-HRP readout, orthogonal assay, confirmation (AID 1060)
Protein Tat = target: T2, Protein Tat (Human immunodeficiency virus type 1 group M subtype B (isolate HXB2)(HIV-1), UniProt P04608); assay type: functional;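 also: tat binding to TAR RNA read out by fluorescence polarization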
T2 sequence (P04608 whole entry): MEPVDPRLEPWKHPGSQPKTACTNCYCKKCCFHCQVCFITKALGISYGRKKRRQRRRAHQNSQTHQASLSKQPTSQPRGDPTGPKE

Bcl-2-like protein 10 = target: T3, Bcl-2-like protein 10 (Homo sapiens, UniProt Q9HD36); test: Bcl-B/TR3 peptide binding disruption – biochemical, fluorescence polarization, FITC-TR3 peptide, selectivity assay for Bfl-1 inhibitor project, primary screen (AID 748);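 also: fluorescence polarization from a fluorescein-labelled TR3 peptide binding purified Bcl-B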
T3 sequence (Q9HD36 whole entry): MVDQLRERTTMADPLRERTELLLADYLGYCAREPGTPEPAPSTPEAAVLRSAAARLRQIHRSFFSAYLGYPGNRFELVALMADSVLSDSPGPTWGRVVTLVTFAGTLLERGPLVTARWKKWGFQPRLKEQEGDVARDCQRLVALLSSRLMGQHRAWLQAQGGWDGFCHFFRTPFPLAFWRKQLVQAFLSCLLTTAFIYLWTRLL

Aminopeptidase N = target: T4, Aminopeptidase N (Plasmodium falciparum FcB1/Columbia, UniProt O96935); test: malaria alanyl aminopeptidase activity blockers – biochemical, fluorogenic H-Leu-NHMec substrate, 1536-well (AID 1445); design: species or system Plasmodium falciparum 3D7, 3D7
T4 sequence (O96935 whole entry): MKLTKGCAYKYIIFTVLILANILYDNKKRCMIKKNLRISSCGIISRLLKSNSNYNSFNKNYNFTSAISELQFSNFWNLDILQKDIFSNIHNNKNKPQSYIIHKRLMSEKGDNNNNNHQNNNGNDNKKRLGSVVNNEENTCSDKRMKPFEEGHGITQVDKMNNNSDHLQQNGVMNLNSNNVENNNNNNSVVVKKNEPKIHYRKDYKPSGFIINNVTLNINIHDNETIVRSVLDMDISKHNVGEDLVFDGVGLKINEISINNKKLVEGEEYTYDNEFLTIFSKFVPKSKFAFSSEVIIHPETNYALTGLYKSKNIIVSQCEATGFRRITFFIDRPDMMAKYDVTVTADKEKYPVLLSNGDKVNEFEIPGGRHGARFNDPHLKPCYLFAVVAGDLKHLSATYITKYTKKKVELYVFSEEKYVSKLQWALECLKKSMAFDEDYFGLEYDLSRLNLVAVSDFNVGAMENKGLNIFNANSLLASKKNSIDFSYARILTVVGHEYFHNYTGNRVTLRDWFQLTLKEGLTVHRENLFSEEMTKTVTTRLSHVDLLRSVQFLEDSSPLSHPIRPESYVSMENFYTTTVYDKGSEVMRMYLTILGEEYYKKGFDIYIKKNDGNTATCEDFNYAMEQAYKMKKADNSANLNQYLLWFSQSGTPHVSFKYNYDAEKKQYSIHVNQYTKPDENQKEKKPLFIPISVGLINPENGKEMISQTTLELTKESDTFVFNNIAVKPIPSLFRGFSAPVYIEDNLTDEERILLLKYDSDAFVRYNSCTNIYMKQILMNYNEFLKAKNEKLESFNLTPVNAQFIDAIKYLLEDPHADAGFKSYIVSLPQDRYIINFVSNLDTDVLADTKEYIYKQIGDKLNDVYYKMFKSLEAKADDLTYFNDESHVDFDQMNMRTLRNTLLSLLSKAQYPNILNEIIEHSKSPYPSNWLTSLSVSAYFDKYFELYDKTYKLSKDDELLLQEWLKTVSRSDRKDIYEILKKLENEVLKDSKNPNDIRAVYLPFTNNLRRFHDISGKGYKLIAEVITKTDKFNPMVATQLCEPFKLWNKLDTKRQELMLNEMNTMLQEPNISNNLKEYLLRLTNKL

[8] = target: T5, Tyrosine-protein phosphatase non-receptor type 7 (Homo sapiens, UniProt P35236); test: HePTP tyrosine phosphatase activity blockers – biochemical, absorbance, leukemia target, primary screen (AID 521); assay type: functional
T5 sequence (P35236 whole entry): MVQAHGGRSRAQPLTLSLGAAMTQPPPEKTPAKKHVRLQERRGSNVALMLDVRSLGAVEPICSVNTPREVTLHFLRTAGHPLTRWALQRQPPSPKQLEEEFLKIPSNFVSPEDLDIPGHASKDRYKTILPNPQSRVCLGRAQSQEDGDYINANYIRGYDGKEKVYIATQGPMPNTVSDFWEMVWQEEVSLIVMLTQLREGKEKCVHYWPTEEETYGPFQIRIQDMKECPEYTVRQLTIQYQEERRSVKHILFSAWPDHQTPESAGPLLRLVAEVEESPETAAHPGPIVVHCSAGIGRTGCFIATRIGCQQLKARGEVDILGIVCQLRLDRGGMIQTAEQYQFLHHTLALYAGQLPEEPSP

[9] = target: T6, Dual specificity protein phosphatase 6 (Rattus norvegicus, UniProt Q64346); test: inhibition of rat DUSP6 enzyme activity – biochemical, in vitro, primary screen (AID 425)
T6 sequence (Q64346 whole entry): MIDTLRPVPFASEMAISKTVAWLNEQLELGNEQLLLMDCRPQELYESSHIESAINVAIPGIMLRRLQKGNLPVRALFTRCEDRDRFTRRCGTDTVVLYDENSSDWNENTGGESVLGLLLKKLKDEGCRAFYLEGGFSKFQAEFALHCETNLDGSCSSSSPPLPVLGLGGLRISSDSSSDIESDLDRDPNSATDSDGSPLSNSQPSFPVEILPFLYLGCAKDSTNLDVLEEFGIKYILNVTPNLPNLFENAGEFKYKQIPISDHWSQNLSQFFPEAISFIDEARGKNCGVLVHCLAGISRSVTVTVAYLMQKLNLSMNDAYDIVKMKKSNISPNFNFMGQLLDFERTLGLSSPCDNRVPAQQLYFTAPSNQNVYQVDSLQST

Major prion protein = Major prion protein (Homo sapiens, UniProt P04156); assay type: functional, cell-based
[10] = target: T7, Zinc finger protein mex-5 (Caenorhabditis elegans, UniProt Q9XUB2); test: potency of MEX-5 RNA-binding blockers – biochemical, C. elegans, fluorescence polarization, dose response (AID 1960)
T7 sequence (Q9XUB2 whole entry): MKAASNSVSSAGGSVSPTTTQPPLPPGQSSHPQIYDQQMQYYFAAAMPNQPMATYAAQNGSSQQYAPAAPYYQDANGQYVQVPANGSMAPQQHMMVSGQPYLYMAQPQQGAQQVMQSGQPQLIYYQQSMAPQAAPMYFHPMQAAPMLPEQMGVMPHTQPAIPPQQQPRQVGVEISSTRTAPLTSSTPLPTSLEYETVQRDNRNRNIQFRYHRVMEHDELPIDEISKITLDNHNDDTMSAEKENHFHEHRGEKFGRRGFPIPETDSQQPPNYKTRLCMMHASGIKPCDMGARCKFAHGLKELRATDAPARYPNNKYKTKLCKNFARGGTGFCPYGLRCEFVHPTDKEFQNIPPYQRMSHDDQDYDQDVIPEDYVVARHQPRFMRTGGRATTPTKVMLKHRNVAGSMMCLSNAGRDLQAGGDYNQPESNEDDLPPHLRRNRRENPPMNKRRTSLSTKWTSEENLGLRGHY

Large T antigen = Large T antigen (Simian virus 40, UniProt P03070); assay type: functional, Betapolyomavirus macacae;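 also: Confirmatory-stage PubChem screen for compounds that inhibit SV40 T antigen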
[11] = target: T8, Low molecular weight phosphotyrosine protein phosphatase (Homo sapiens, UniProt P24666); assay type: functional; conditions: read-out: IC50_Mean;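 also: Dose-response confirmation assay measuring inhibition of LMPTP enzyme activity by fluorescence intensity read-out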
T8 sequence (P24666 whole entry): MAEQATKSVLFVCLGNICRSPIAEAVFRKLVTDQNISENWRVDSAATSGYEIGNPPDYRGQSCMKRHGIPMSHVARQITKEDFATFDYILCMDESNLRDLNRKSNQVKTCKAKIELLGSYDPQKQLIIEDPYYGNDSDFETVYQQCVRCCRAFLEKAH

[12] = target: T9, RNA-binding protein pos-1 (Caenorhabditis elegans, UniProt G5EF15); test: disruptors of C. elegans POS-1 RNA interaction – biochemical, fluorescence polarization, dose response (AID 1964);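 also: purified POS-1 fused to maltose binding protein made in E. coli; potency of compounds blocking POS-1 binding to fluorescent RNA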
T9 sequence (G5EF15 whole entry): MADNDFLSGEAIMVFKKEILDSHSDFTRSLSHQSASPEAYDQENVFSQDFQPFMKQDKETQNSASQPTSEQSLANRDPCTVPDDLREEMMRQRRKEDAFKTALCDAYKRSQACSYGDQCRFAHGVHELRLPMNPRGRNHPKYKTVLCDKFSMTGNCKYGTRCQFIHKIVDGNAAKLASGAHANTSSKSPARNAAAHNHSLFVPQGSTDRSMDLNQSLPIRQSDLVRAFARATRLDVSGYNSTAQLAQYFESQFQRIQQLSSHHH

Bcl-2-like protein 1 = Bcl-2-like protein 1 (Homo sapiens, UniProt Q07817); test: blockers of BCLXL peptide binding – biochemical, fluorescence polarization, 1536-well, selectivity assay for MCL1 inhibitor project, dose response (AID 2218)
[13] = target: T1, Induced myeloid leukemia cell differentiation protein Mcl-1; test: blockers of MCL1 binding to BIM peptide – biochemical, fluorescence polarization, BIM-BH3 peptide, 1536-well, dose response (AID 2217)
[14] = target: T6, Dual specificity protein phosphatase 6
Cytochrome P450 2C19 = Cytochrome P450 2C19 (Homo sapiens, UniProt P33261); test: Cytochrome panel assay with activity outcomes. Panel member name: p450-cyp2c19 Compounds with AC50 equal or less than 10 uM are considered active; assay type: functional; conditions: read-out: AC50
[15] = target: T5, Tyrosine-protein phosphatase non-receptor type 7; assay type: functional
[16] = target: Glyceraldehyde-3-phosphate dehydrogenase (Homo sapiens, UniProt P04406)
[17] = target: T6, Dual specificity protein phosphatase 6; assay type: functional

## Cc1ccc(-c2cc(NC(=O)c3ccccc3)on2)cc1
[1]
  EC50: 0.632 µM (active)
[2]
  EC50: < 0.1 µM (active)
[3]
  EC50: 0.463 µM (active)
H4
  EC50: 9.75 µM (active)
[4]
  EC50: 0.334 µM (active)
[5]
  EC50: 0.137 µM (active)

## COc1ccc(-c2csc(NC(=S)NC(=O)c3cccs3)n2)cc1Br
[6]
  EC50: 1.41 µM (active)

## O=C(CSc1nnc(-c2ccco2)c(-c2ccco2)n1)Nc1ccccc1
Genome polyprotein
  IC50: > 100 µM (active)
[7]
  IC50: 3.11 µM (active)
Estrogen receptor beta
  IC50: < 0.023 µM (not active)
Protein Tat
  IC50: 5.16 µM (inconclusive)
Bcl-2-like protein 10
  IC50: 15.3 µM (active)
Aminopeptidase N
  IC50: 97.7 µM (active)

## NC(=O)CSc1nnc2n(-c3ccccc3)c(=O)c3c4c(sc3n12)CCCCC4
[8]
  IC50: 2.54 µM (active)
[9]
  IC50: > 10 µM (not active)
cells
  IC50: 130 µM (inactive)
Major prion protein
  IC50: 4.66 µM (active)

## Cc1ccc(-c2cc(-c3ccco3)c(C#N)c(=O)[nH]2)cc1
[10]
  EC50: 8.36 µM (inconclusive)
Large T antigen
  IC50: 64.5 µM (active)
[11]
  IC50: 49.2 µM (inactive)
[12]
  EC50: 26.1 µM (active)
Bcl-2-like protein 1
  IC50: > 109 µM (not active)
[13]
  IC50: > 12.1 µM (not active)

## Clc1ccccc1/C=N/Nc1cc(N2CCOCC2)ncn1
[1]
  EC50: 1.05 µM (active)
[2]
  EC50: < 0.1 µM (active)
[3]
  EC50: 0.564 µM (active)
H4
  EC50: 9.34 µM (active)
[4]
  EC50: 0.394 µM (active)

## Cc1ccc(C)n1C(Cc1ccccc1)C(=O)O (stereo not given)
[14]
  IC50: > 100 µM (inactive)
Cytochrome P450 2C19
  AC50: 22.4 µM (inconclusive)
[9]
  IC50: > 10 µM (not active)
Bcl-2-like protein 10
  IC50: < 0.195 µM (inactive)
[15]
  IC50: 28 µM (active)
[16]
  IC50: > 100 µM (not active)
[17]
  IC50: > 100 µM (inactive)
